Experimental data from US9597407B2, “Targeted antimicrobial moieties” (C3 Jian, Inc., priority 2009, dated 2017).
“Also recorded” adds a separate entry of the source. Ends that are not written are not given here.

Experiments:
[1] = system: microorganisms; assay: Morphology, biofilm and growth disruption by peptides (Table 5); assay type: cell-based; parameters: key: A: Peptide aggregates; B: Less hyphal formation; Clumps; Diffuse clumps and small polyps; F: Diffuse growth; H: Thin; I: Growth inhibition; Microcolony formation; Rippled; Small polyps; Thick; W: Halo formation on top, microlonies on bottom
Excerpt: In certain embodiments peptides that induce alterations in phenotype or other biological activities can also be used as antimicrobial effector moieties.

[2] = system: bacteria; assay: Binding of targeting peptides to microorganisms (Table 3); settings: preferably 1x PBS; for Target(s) (microorganism bound by the targeting peptide) / Target(s) (microorganisms bound by the targeting peptide): peptide binding in aqueous buffers that varied depending on peptide solubility
[3] = microorganism the targeting peptide binds, binding in aqueous buffers that varied with peptide solubility
[4] = microorganism bound by the targeting peptide, binding in aqueous buffers chosen by peptide solubility

PF-009 (chain 1 SKKYNHILNQENR; chain 2 SKKYNHILNQENR; Peptide with targeting and/or antimicrobial activity)
Organism, effect ([1]; S. epidermidis): S. epidermidis (S) | Target(s) [2, 3]: M. luteus; also recorded: P. mirabilis; also recorded: C. albicans

PF-C291 (HPFLTGTGCPLFLIFRLFFVKAYFSFTVF; Peptide with targeting and/or antimicrobial activity)
Organism, effect (morphology, biofilm and growth disruption) ([1]; F. nucleatum): F. nucleatum (T) | Organism, effect (morphology, biofilm and growth disruption) ([1]; S. mutans): S. mutans (F) | Target(s) (microorganism bound by the targeting peptide) [2]: A. naeslundii; also recorded: F. nucleatum; also recorded: P. gingivalis; also recorded: S. mutans

PF-133 (GDPTAGQKPVECP; Peptide with targeting and/or antimicrobial activity)
Organism, effect ([1]; C. jeikeium): C. jeikeium (R) | Target(s) [2, 4]: S. epidermidis; also recorded: C. jeikeium; also recorded: C. jejuni; also recorded: M. smegmatis

PF-164 (EEVSRALAGIGLGLGCRIG; Peptide with targeting and/or antimicrobial activity)
Organism, effect ([1]; C. jeikeium): C. jeikeium (R) | Target(s) [2, 4]: S. epidermidis; also recorded: M. luteus; also recorded: E. coli; also recorded: C. jeikeium

PF-403 (LLSTEQLLKYYDGETFDGFQLPSNE; Peptide with targeting and/or antimicrobial activity)
Organism, effect ([1]; E. coli): E. coli (R) | Organism, effect ([1]; MRSA): MRSA (M) | Organism, effect ([1]; S. epidermidis): S. epidermidis (M) | Target(s) (microorganisms bound by the targeting peptide) [2]: E. coli; also recorded: P. aeruginosa; also recorded: S. pneumoniae; also recorded: E. faecalis; also recorded: C. jeikeium; also recorded: C. jejuni

PF-192 (VEEDEAPPPHY; Peptide with targeting and/or antimicrobial activity)
Organism, effect ([1]; S. epidermidis): S. epidermidis (D) | Target(s) [2, 4]: S. epidermidis; also recorded: M. luteus; also recorded: P. aeruginosa; also recorded: C. albicans; also recorded: E. faecalis; also recorded: C. jeikeium

PF-662 (chain 1 GKQSRAHGPVASRREFRRKSG; chain 2 GKQSRAHGPVASRREFRRKSG; Peptide with targeting and/or antimicrobial activity)
Organism, effect (morphology, biofilm and growth disruption) ([1]; S. pneumoniae): S. pneumoniae (A) | Target(s) (microorganism bound by the targeting peptide) [2]: Mycobacteria spp

PF-186 (DADKNLSLERDRFAWRVAAP; Peptide with targeting and/or antimicrobial activity)
Organism, effect ([1]; C. jeikeium): C. jeikeium (A) | Organism, effect ([1]; S. epidermidis): S. epidermidis (C) | Target(s) [2, 4]: S. epidermidis and M. luteus and E. coli and P. aeruginosa and MRSA and C. jeikeium

PF-640 (chain 1 MGDINRNF; chain 2 MGDINRNF; Peptide with targeting and/or antimicrobial activity)
Organism, effect (morphology, biofilm and growth disruption) ([1]; C. albicans): C. albicans (B) | Organism, effect (morphology, biofilm and growth disruption) ([1]; E. faecalis): E. faecalis (H) | Organism, effect (morphology, biofilm and growth disruption) ([1]; S. pneumoniae): S. pneumoniae (I) | Target(s) (microorganism bound by the targeting peptide) [2]: C. albicans

PF-271 (AAQPQTTSP; Peptide with targeting and/or antimicrobial activity)
Organism, effect ([1]; M. luteus): M. luteus (T) | Target(s) [2, 4]: S. epidermidis; also recorded: M. luteus; also recorded: P. aeruginosa; also recorded: A. baumannii

PF-294 (DFLVNFLWFKGELNWGKKRYK; Peptide with targeting and/or antimicrobial activity)
Organism, effect ([1]; S. epidermidis): S. epidermidis (C) | Target(s) [2, 4]: S. epidermidis; also recorded: C. difficile

PF-175 (RRRPAGQRPEKASQAMIAA; Peptide with targeting and/or antimicrobial activity)
Organism, effect ([1]; B. subtilis): B. subtilis (D) | Organism, effect ([1]; C. albicans): C. albicans (B) | Organism, effect ([1]; C. jejuni): C. jejuni (M) | Organism, effect ([1]; M. luteus): M. luteus (S) | Organism, effect ([1]; S. pneumoniae): S. pneumoniae (A) | Target(s) [2, 4]: S. epidermidis; also recorded: E. faecalis

PF-433 (MRKEFHNVLSSGQLLADKRPARDYNRK; Peptide with targeting and/or antimicrobial activity)
Organism, effect (morphology, biofilm and growth disruption) ([1]; S. pneumoniae): S. pneumoniae (H) | Target(s) (microorganisms bound by the targeting peptide) [2]: S. epidermidis; also recorded: E. coli; also recorded: S. pneumoniae; also recorded: C. jeikeium

PF-301 (GIVLIGLKLIPLLANVLN; Peptide with targeting and/or antimicrobial activity)
Organism, effect ([1]; B. subtilis): B. subtilis (C) | Organism, effect ([1]; S. epidermidis): S. epidermidis (C) | Target(s) [2, 4]: C. difficile

FELVDWLETNLGKILKSKSA-NH2 [PF-522]
Organism, effect (morphology, biofilm and growth disruption) ([1]; S. pneumoniae): S. pneumoniae (H) | Target(s) (microorganisms bound by the targeting peptide) [2]: S. epidermidis; also recorded: E. coli; also recorded: P. aeruginosa; also recorded: S. pneumoniae; also recorded: E. faecalis

PF-601 (YRVTVKALE; Peptide with targeting and/or antimicrobial activity)
Organism, effect (morphology, biofilm and growth disruption) ([1]; C. jejuni): C. jejuni (A) | Organism, effect (morphology, biofilm and growth disruption) ([1]; E. faecalis): E. faecalis (A) | Target(s) (microorganism bound by the targeting peptide) [2]: C. jeikeium

LNFRAENKILEKIHISLIDTVEGSA [PF-575]
Organism, effect (morphology, biofilm and growth disruption) ([1]; C. jeikeium): C. jeikeium (A) | Organism, effect (morphology, biofilm and growth disruption) ([1]; C. jejuni): C. jejuni (R) | Organism, effect (morphology, biofilm and growth disruption) ([1]; P. aeruginosa): P. aeruginosa (A) | Organism, effect (morphology, biofilm and growth disruption) ([1]; S. pneumoniae): S. pneumoniae (A) | Target(s) (microorganisms bound by the targeting peptide) [2]: M. luteus and E. coli and C. albicans and MRSA and S. pneumoniae and E. faecalis and C. jeikeium

PF-642 (chain 1 FTTPMIGIPAGLLGGSYYLKRREEKGK; chain 2 FTTPMIGIPAGLLGGSYYLKRREEKGK; Peptide with targeting and/or antimicrobial activity)
Organism, effect (morphology, biofilm and growth disruption) ([1]; MRSA): MRSA (M) | Target(s) (microorganism bound by the targeting peptide) [2]: M. luteus and MRSA and C. jeikeium

PF-699 (chain 1 GRAGVKCRRPTGR; chain 2 GRAGVKCRRPTGR; Peptide with targeting and/or antimicrobial activity)
Organism, effect (morphology, biofilm and growth disruption) ([1]; S. pneumoniae): S. pneumoniae (A) | Target(s) (microorganism bound by the targeting peptide) [2]: Mycobacteria spp

PF-408 (YCVPLGNMGNMNNKIW; Peptide with targeting and/or antimicrobial activity)
Organism, effect ([1]; MRSA): MRSA (M) | Organism, effect ([1]; S. epidermidis): S. epidermidis (M) | Target(s) (microorganisms bound by the targeting peptide) [2]: S. epidermidis and E. coli and P. aeruginosa and MRSA and E. faecalis and C. jeikeium and C. jejuni

PF-395 (YCVPLGNMGNMNNKIW; Peptide with targeting and/or antimicrobial activity)
Organism, effect ([1]; E. coli): E. coli (R) | Organism, effect ([1]; MRSA): MRSA (C) | Organism, effect ([1]; S. epidermidis): S. epidermidis (C) | Target(s) (microorganisms bound by the targeting peptide) [2]: S. epidermidis; also recorded: E. coli; also recorded: P. aeruginosa; also recorded: S. pneumoniae; also recorded: E. faecalis; also recorded: C. jeikeium; also recorded: C. jejuni

PF-C071 (QVIVKIL; Peptide with targeting and/or antimicrobial activity)
Organism, effect (morphology, biofilm and growth disruption) ([1]; F. nucleatum): F. nucleatum (T) | Target(s) (microorganism bound by the targeting peptide) [2]: A. naeslundii; also recorded: F. nucleatum; also recorded: S. mutans

PF-C120 (ASLSTMTFKVMELKELIILLCGLTMLMIQTEFV; Peptide with targeting and/or antimicrobial activity)
Organism, effect (morphology, biofilm and growth disruption) ([1]; F. nucleatum): F. nucleatum (T) | Target(s) (microorganism bound by the targeting peptide) [2]: A. naeslundii; also recorded: F. nucleatum; also recorded: P. gingivalis; also recorded: S. mutans; also recorded: T. denticola

PF-123 (TTRPQVAEDRQLDDALKETFPASDPISP; Peptide with targeting and/or antimicrobial activity)
Organism, effect ([1]; S. epidermidis): S. epidermidis (M) | Target(s) [2, 4]: M. luteus; also recorded: E. coli

PF-428 (ENEESIF; Peptide with targeting and/or antimicrobial activity)
Organism, effect (morphology, biofilm and growth disruption) ([1]; S. pneumoniae): S. pneumoniae (H) | Target(s) (microorganisms bound by the targeting peptide) [2]: S. epidermidis; also recorded: C. albicans; also recorded: E. faecalis; also recorded: C. jeikeium

PF-636 (chain 1 LVRLA; chain 2 LVRLA; Peptide with targeting and/or antimicrobial activity)
Organism, effect (morphology, biofilm and growth disruption) ([1]; B. subtilis): B. subtilis (H) | Organism, effect (morphology, biofilm and growth disruption) ([1]; C. albicans): C. albicans (B) | Organism, effect (morphology, biofilm and growth disruption) ([1]; E. faecalis): E. faecalis (H) | Organism, effect (morphology, biofilm and growth disruption) ([1]; S. pneumoniae): S. pneumoniae (H) | Target(s) (microorganism bound by the targeting peptide) [2]: S. epidermidis and C. albicans and MRSA and S. pneumoniae and E. faecalis

PF-173 (AGRTAIVQGGG; Peptide with targeting and/or antimicrobial activity)
Organism, effect ([1]; C. jeikeium): C. jeikeium (D) | Organism, effect ([1]; S. epidermidis): S. epidermidis (A) | Target(s) [2, 4]: S. epidermidis; also recorded: M. luteus; also recorded: P. mirabilis; also recorded: E. coli; also recorded: P. aeruginosa; also recorded: C. albicans; also recorded: C. jeikeium; also recorded: C. jejuni

PF-003 (chain 1 MNNWIKVAQISVTVINEVIDIMKEKQNGGK; chain 2 MNNWIKVAQISVTVINEVIDIMKEKQNGGK; Peptide with targeting and/or antimicrobial activity)
Organism, effect ([1]; C. jeikeium): C. jeikeium (A) | Organism, effect ([1]; M. luteus): M. luteus (A) | Organism, effect ([1]; MRSA): MRSA (R) | Organism, effect ([1]; S. epidermidis): S. epidermidis (D) | Target(s) [2, 3]: S. epidermidis and M. luteus and P. mirabilis and C. albicans and MRSA and C. jeikeium

PF-424 (IAAFVTSRAFSDTVSPI; Peptide with targeting and/or antimicrobial activity)
Organism, effect (morphology, biofilm and growth disruption) ([1]; S. pneumoniae): S. pneumoniae (H) | Target(s) (microorganisms bound by the targeting peptide) [2]: S. epidermidis and C. albicans and MRSA
